Consider three compounds from ChEMBL document CHEMBL1138303, “Putative bioactive conformations of amide linked cyclic myelin basic protein peptide analogues associated with experimental autoimmune encephalomyelitis” (J Med Chem, 2007).

Data set [1] is filed under the species Rattus norvegicus. The data set can be described thus: Inhibition of encephalitogenic MBP(74-85)-induced encephalomyelitis in Lewis rat. The class given is functional, organism-based.
A short description of data set [2]: Solubility per 100 uL of the compound. The class given is physicochemical.

Active and inactive are the calls of the source. The calls are words filed in the database; no cut-off is given here. Peptide text beside a SMILES is read from it.

For the compound `CC[C@H](C)[C@@H]1NC(=O)[C@H](CC(N)=O)NC(=O)[C@H](C)NC(=O)[C@H](Cc2ccccc2)NC(=O)[C@H](Cc2ccccc2)NC(=O)[C@H](Cc2c[nH]cn2)NC(=O)[C@H](C(C)C)NC(=O)[C@@H]2CCCN2C(=O)[C@H]([C@@H](C)O)NC(=O)[C@H](CCCNC(=N)N)NC(=O)[C@H](C)NC(=O)[C@H]([C@@H](C)O)NC(=O)[C@H](C(C)C)NC1=O` (HELM PEPTIDE1{A.N.I.V.T.A.R.T.P.V.H.F.F}$PEPTIDE1,PEPTIDE1,1:R1-13:R2$$$V2.0), the outcome in data set [1] was Active. The same compound returned a Solubility in data set [2] of 1.15 mg. Regarding `CC[C@H](C)[C@@H]1NC(=O)[C@H](CC(N)=O)NC(=O)[C@H](CCCCN)NC(=O)[C@H](Cc2ccccc2)NC(=O)[C@H](Cc2ccccc2)NC(=O)[C@H](Cc2c[nH]cn2)NC(=O)[C@H](C(C)C)NC(=O)[C@@H]2CCCN2C(=O)[C@H]([C@@H](C)O)NC(=O)[C@H](CCCNC(=N)N)NC(=O)[C@@H]2CCCN2C(=O)[C@H]([C@@H](C)O)NC(=O)[C@H](C(C)C)NC1=O`, in data set [2], the Solubility is recorded as 16 mg. `CC[C@H](C)[C@@H]1NC(=O)[C@H](CC(N)=O)NC(=O)[C@H](CCCNC(=N)N)NC(=O)[C@H](Cc2ccccc2)NC(=O)[C@H](Cc2ccccc2)NC(=O)[C@H](Cc2c[nH]cn2)NC(=O)[C@H](C(C)C)NC(=O)[C@@H]2CCCN2C(=O)[C@H]([C@@H](C)O)NC(=O)[C@H](CCCNC(=N)N)NC(=O)[C@H](C)NC(=O)[C@H]([C@@H](C)O)NC(=O)[C@H](C(C)C)NC1=O` (HELM PEPTIDE1{A.R.T.P.V.H.F.F.R.N.I.V.T}$PEPTIDE1,PEPTIDE1,1:R1-13:R2$$$V2.0): the result in data set [1] was Active. In data set [2], this compound displayed a Solubility of 16.25 mg.
